Data on 20 molecules can be found in PMC11995724, “Antibiotic target discovery by integrated phenotypic and activity-based profiling of electrophilic fragments” (Cell chemical biology, 2025).

By viability is commonly meant a read-out of living cells in per cent, often relative to untreated cells.

Where a name gives a salt, the structure may show the parent alone.

The data set in a line: in vitro. As to conditions: human, hek293t cells.
For the molecule `CC(Cl)C(=O)N(C)Cc1nccn1Cc1ccccc1` (centres unmarked) [6-J09, N-[(1-benzyl-1H-imidazol-2-yl)methyl]-2-chloro-N-methylpropanamide], the viability at 48 h, 25 µM came out at 91.5%. For `O=C(CCl)Nc1cc(-c2ccc3c(c2)CCC3)nn1-c1ccccc1` [6-J10, 2-chloro-N-[3-(2,3-dihydro-1H-inden-5-yl)-1-phenyl-1H-pyrazol-5-yl]acetamide] the value was 0.354%; for `CCN(C(=O)CCl)C(c1ccccc1)c1ccc(F)cc1` (centres unmarked) [6-J11, 2-chloro-N-ethyl-N-[(4-fluorophenyl)(phenyl)methyl]acetamide], 0.263%; for `O=C(CCl)Nc1cc(S(=O)(=O)N2CCOCC2)ccc1O` [6-J12, 2-chloro-N-[2-hydroxy-5-(morpholine-4-sulfonyl)phenyl]acetamide], 116%. To `COCC1(NC(=O)C(C)Cl)CC=CCC1` (centres unmarked) [6-J13, 2-chloro-N-[1-(methoxymethyl)cyclohex-3-en-1-yl]propanamide] belongs 107%; to `CC(Cl)C(=O)N(C)C(C)c1cccc(NC(=O)c2ccccc2)c1` (centres unmarked) [6-J14, N-{3-[1-(2-chloro-N-methylpropanamido)ethyl]phenyl}benzamide], 111%; to `CC(Cl)C(=O)N1CC(Oc2ccc(C#N)cc2)C1` (centres unmarked) [6-J15, 4-{[1-(2-chloropropanoyl)azetidin-3-yl]oxy}benzonitrile], 97.1%. To `CC(Cl)C(=O)NC1CCCn2nccc21` (centres unmarked) [6-J16, 2-chloro-N-{4H,5H,6H,7H-pyrazolo[1,5-a]pyridin-4-yl}propanamide] belongs 113%; to `CC(Cl)C(=O)N1CCNC(=O)C1c1cccs1` (centres unmarked) [6-J17, 4-(2-chloropropanoyl)-3-(thiophen-2-yl)piperazin-2-one], 106%. Consider `CC(Cl)C(=O)N1CCC(c2nc3cc(F)ccc3s2)CC1` (centres unmarked) [6-J18, 2-chloro-1-[4-(5-fluoro-1,3-benzothiazol-2-yl)piperidin-1-yl]propan-1-one], for which the viability at 48 h, 25 µM worked out at 78.9%. For `CC(Cl)C(=O)NC1CC(=O)N(Cc2ccccc2C(F)(F)F)C1` (centres unmarked) [6-J19, 2-chloro-N-(5-oxo-1-{[2-(trifluoromethyl)phenyl]methyl}pyrrolidin-3-yl)propanamide] the value was 108%; for `CC(Cl)C(=O)N(C)C1CCN(c2ccccn2)CC1` (centres unmarked) [6-J20, 2-chloro-N-methyl-N-[1-(pyridin-2-yl)piperidin-4-yl]propanamide], 106%; for `CC(Cl)C(=O)N(C)C1CCS(=O)(=O)CC1` (centres unmarked) [6-J21, 2-chloro-N-(1,1-dioxo-1lambda6-thian-4-yl)-N-methylpropanamide], 99.1%. In the case of `CC(Cl)C(=O)N1CCCC(CNC(=O)Nc2ccc(F)cc2)C1` (centres unmarked) [6-J22, 3-{[1-(2-chloropropanoyl)piperidin-3-yl]methyl}-1-(4-fluorophenyl)urea], the viability at 48 h, 25 µM was found to be 105%. In the case of `Cc1ccsc1-c1nnc(NC(=O)CCl)o1` [6-K03, 2-chloro-N-[5-(3-methylthiophen-2-yl)-1,3,4-oxadiazol-2-yl]acetamide], the viability at 48 h, 25 µM is 72.7%. For `CC1CCCN(Cc2ccc(CNC(=O)CCl)cc2)C1` (centres unmarked) [6-K04, 2-chloro-N-({4-[(3-methylpiperidin-1-yl)methyl]phenyl}methyl)acetamide hydrochloride] the value was 56.4%; for `CCc1ccc(CNC(=O)CCl)s1` [6-K05, 2-chloro-N-[(5-ethylthiophen-2-yl)methyl]acetamide], 5.18%. For `Cc1cc(C)c(CCNC(=O)CCl)c(C)c1` [6-K06, 2-chloro-N-[2-(2,4,6-trimethylphenyl)ethyl]acetamide] the value was 14.3%; for `O=C(CCl)Nc1ccc(OCc2ccccc2)cc1` [6-K07, N-[4-(benzyloxy)phenyl]-2-chloroacetamide], 0.0552%; for `O=C(CCl)NC(c1ccc(F)cc1)C1CCCC1` (centres unmarked) [6-K08, 2-chloro-N-[cyclopentyl(4-fluorophenyl)methyl]acetamide], 1.04%.
